Assay results published in US8029980B2, “Identification and use of agents that modulate oncogenic transcription agent activity” (The Board of Trustees of the University of Illinois, priority 2006, dated 2011).

Experiments:
FoxM1 [1] = assay: FoxM1-responsive firefly luciferase reporter assay in C3-Luc cells; type: cell-based, human; details: C3-Luc cells without doxycycline induction, increasing concentration
Description: FIG. 6. Thiostrepton and Siomycin A both inhibit FoxM1 transcriptional activity. […] The next day, the luciferase activity was measured with the Dual-Luciferase reporter assay system (E1910; Promega) according to the manufacturer's instructions.
The development of U2OS clone C3 cell line with doxycyclin inducible FoxM1-GFP fusion protein has been described before (17). This cell line was transfected with a plasmid expressing firefly luciferase under the control of 6× FoxM1 responsive (FoxRE) promoter (17), along with pcDNA3.1 (Invitrogen, Carlsbad, Calif.) plasmid that expresses neomycin phospho-transferase. […] This clone was further transfected with pRL-CMV (Promega) that expresses renilla luciferase along with pLPCX-puro (Clontech), and the cells were selected in 2 μg/ml puromycin. This cell line which expresses FoxM1-dependent firefly luciferase and constitutive renilla luciferase was named as C3-Luc and used for the screening of compound libraries (Challenge set and Diversity set) from the National Cancer Institute.
For high-throughput screening, the C3-Luc cells were grown in 96-well plates and treated overnight with a combination of 1 μg/ml doxycycline and 10 μM of compounds from the library. Next day, the firefly and renilla luciferase activities were measured with the Dual Glo system (E2940; Promega).
For the other luciferase assay experiments, the cells were treated as indicated in the FIG. 1 legend and the luciferase activity was measured using the Dual Luciferase reporter assay system (E1910; Promega) according to the manufacturer's instructions.

C3-Luc cells = assay: Soft agar assay (anchorage-independent growth); type: cell-based, human; details: 10 μM, 1 μg/mL doxycycline, 4 weeks
Description: The assay was done as described previously (21, 22). Briefly C3-Luc cells were plated subconfluently in six-well plates in 0.7% agarose on a 1.4% agarose bed in the presence or absence of 10 μM of Siomycin A and 1 μg/mL of doxycycline. Three times a week, the tissue-culture medium containing these agents was replaced. After 4 weeks, cell colonies that were larger than 1 mm in size were scored.

[2] = test system: NB7 and NB7-casp8 neuroblastoma cells; assay: FoxM1 and cleaved caspase-3 immunoblot in neuroblastoma cells; type: cell-based; details: 24 hrs
Description: FIG. 11. […] Cells were treated with Siomycin A, thiostrepton or DMSO, harvested 24 hrs later and the lysates were used to determine proteins levels by immunoblotting with antibodies specific for FoxM1, cleaved caspase-3 and β-actin (AS441, Sigma).

FoxM1 [3] = biological target: T1, FoxM1 (Homo sapiens, UniProt Q08050); assay: FoxM1 immunoprecipitation and MPM2 immunoblot for phospho-FoxM1 in C3-Luc cells; type: cell-based; details: 100 μM, 8 hrs
T1 construct: endogenous in cells; host or cells: C3-Luc (U2OS)
T1 sequence (Q08050 1-763): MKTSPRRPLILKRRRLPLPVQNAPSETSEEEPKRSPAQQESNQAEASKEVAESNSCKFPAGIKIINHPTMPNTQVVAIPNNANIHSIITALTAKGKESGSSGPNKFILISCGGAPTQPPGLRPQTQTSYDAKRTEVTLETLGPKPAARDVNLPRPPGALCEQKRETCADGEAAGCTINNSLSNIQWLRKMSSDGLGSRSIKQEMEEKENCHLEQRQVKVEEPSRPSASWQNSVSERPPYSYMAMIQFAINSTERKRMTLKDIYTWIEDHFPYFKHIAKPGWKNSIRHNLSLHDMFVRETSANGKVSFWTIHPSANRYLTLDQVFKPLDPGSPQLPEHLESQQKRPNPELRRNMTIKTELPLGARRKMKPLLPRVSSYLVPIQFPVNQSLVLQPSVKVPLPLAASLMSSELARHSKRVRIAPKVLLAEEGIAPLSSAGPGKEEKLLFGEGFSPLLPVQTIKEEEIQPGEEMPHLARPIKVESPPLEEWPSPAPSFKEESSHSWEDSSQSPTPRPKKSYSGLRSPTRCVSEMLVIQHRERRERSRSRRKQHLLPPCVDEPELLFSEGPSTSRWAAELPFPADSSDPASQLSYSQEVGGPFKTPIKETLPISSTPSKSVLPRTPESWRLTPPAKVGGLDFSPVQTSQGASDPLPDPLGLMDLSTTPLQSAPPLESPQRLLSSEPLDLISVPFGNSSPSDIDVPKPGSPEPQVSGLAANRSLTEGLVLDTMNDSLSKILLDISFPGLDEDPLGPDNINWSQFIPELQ
Description: (§1) Immunoblotting was performed as described (18-20) with antibodies specific for p21 (556431; BD Pharmingen), survivin (sc-10811; Santa Cruz), cleaved caspase-3 (9664; Cell Signaling), and β-actin (A5441; Sigma) antibodies. Immunoblot for FoxM1 was done using the previously generated rabbit antisera (2), and phospho-FoxM1 was detected using the MPM2 monoclonal antibody (Upstate Biotechnology) which recognizes the phosphorylated protein sequence phosphoserine/phosphothreonine-proline.
For the immunoprecipitation experiment, FoxM1 antisera (2) was used along with protein A-sepharose to pull down FoxM1 protein, which was resolved on an SDS-PAGE gel and transferred to PVDF membrane. The total and phospho-FoxM1 levels were determined by using the antibodies described above.
Based on this observation, we hypothesized that Siomycin A may inhibit FoxM1 transcriptional activity by blocking this phosphorylation event. In order to test this hypothesis, we treated C3-Luc cells with DMSO (control) or 100 μM of Siomycin A for 8 hrs and immunoprecipitated FoxM1 from the lysates. We then analyzed these samples for phospho-FoxM1 levels by immunoblotting with MPM2, a monoclonal antibody that recognizes phosphorylated Cdk1 and Cdk2 sites.

[4] = test system: SV40-transformed MRC-5 human fetal lung fibroblasts; assay: Apoptosis assay (DAPI staining, caspase-3 and survivin immunoblot) in transformed fibroblasts; type: cell-based; details: SV40-transformed cells
Description: FIG. 4. Anti-cancer properties of Siomycin A. (A) Representative photographs from soft agar experiment as described in Example 1 are shown. (B) Number of colonies in the soft agar were quantitated and plotted in the form of bar graphs. (C) Wild type and SV40-transformed MRC-5 human fetal lung fibroblasts were treated with indicated concentrations of Siomycin A for 48 hrs. Photographs from phase contrast microscopy (top panel) and fluorescent microscopy after DAPI staining (bottom panel) are shown. (D) Apoptotic nuclei from normal and SV40-transformed MRC-5 fibroblasts treated with indicated concentrations of Siomycin A for 24 hrs were scored after DAPI staining and percentage cell death (mean±sd; n=3) is shown. (E) Wild type and SV40-transformed MRC-5 fibroblasts were treated with Siomycin A as indicated for 48 hrs and the cell lysates were used for immunoblotting and probed for levels of survivin and cleaved caspase-3.
as §1
Apoptosis was detected by DAPI (4′,6-diamidino-2-phenylindole) staining. All treatments were done in triplicates in 6-well plates and cells were stained with DAPI and visualized by fluorescent microscopy. Four random fields for each sample were photographed and at least 500 cells per field were counted to estimate apoptosis. The data is represented as mean±sd.

[5] = test system: human breast cancer MDA-MB-231 cell line; details: earlier report (ref. 26); cited from earlier work

With `C=C(NC(=O)C(=C)NC(=O)c1csc(C2=N[C@@H]3c4csc(n4)[C@H]4NC(=O)c5csc(n5)[C@H]([C@](C)(O)[C@@H](C)O)NC(=O)[C@H]5CSC(=N5)/C(=C/C)NC(=O)[C@H]([C@@H](C)O)NC(=O)c5csc(n5)[C@]3(CC2)NC(=O)[C@H](C)NC(=O)C(=C)NC(=O)C(=C)NC(=O)[C@H](C(C)C)N[C@@H]2C=Cc3c([C@H](C)O)cc(nc3[C@H]2O)C(=O)O[C@@H]4C)n1)C(N)=O` [Siomycin A] the “firefly luciferase activity conferred by the FoxM1-responsive promoter (endogenous FoxM1)” value (FoxM1 [1]) was “dose-dependent decrease”, the “anchorage-independent growth (number of colonies on soft agar)” value (C3-Luc cells) was “dramatically reduced the anchorage-independent growth to less than basal untreated value” and the “apoptosis (cleaved caspase-3)” value ([2]; NB7 and NB7 with reconstituted caspase-8) was “induce apoptosis in these neuroblastoma cells independently from caspase-8”. The FoxM1 protein expression ([2]; immunoblot) was “inhibit FoxM1 protein expression”, the phospho-FoxM1 levels (FoxM1 [3]) was “decrease in phospho-FoxM1” and the “total FoxM1 levels” value (FoxM1 [3]) was “only marginally reduced”. For the same compound, the “cleavage of caspase-3” value ([4]; 48 hrs, immunoblot) was “showed cleavage of caspase-3”, the survivin levels ([4]; 48 hrs, immunoblot) was “effectively repress survivin levels” and the “apoptosis / cell death” value ([4]; forty-eight hours after treatment) was “dose dependent apoptosis”. For the same compound, the “pro-apoptotic activity in screen” value [5] was “identified in a screen for pro-apoptotic compounds”.
